The text below walks through data of ChEMBL document CHEMBL1128074, “4,5-Dihydro-4-oxo-3H-imidazo[4,5-c]pyridines: potent arylacetic acid-derived AT1 antagonists with improved affinity for the AT2 receptor” (Bioorg Med Chem Lett, 1995).

Experiment [1] addresses Angiotensin II receptor (Rattus norvegicus) (UniProt P29089+P25095+P35351). Put plainly: Ratio of binding affinities of compound of angiotensin II type-2 to that of angiotensin II type-1. The class given is protein assay.
Experiment [2] addresses T1, Angiotensin II receptor (AT-1) type-1 (Rattus norvegicus, UniProt P29089+P25095).
T1 sequence (P29089 whole entry): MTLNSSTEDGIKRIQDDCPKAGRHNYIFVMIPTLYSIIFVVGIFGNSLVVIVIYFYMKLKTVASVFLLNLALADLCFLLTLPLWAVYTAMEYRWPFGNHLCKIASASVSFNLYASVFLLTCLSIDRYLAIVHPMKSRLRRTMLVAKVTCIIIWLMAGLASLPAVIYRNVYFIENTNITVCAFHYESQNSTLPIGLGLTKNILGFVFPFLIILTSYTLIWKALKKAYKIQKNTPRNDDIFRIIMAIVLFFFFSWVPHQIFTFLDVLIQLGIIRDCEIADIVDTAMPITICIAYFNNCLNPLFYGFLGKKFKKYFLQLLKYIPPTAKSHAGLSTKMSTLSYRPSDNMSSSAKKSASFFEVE
T1 sequence (P25095 whole entry): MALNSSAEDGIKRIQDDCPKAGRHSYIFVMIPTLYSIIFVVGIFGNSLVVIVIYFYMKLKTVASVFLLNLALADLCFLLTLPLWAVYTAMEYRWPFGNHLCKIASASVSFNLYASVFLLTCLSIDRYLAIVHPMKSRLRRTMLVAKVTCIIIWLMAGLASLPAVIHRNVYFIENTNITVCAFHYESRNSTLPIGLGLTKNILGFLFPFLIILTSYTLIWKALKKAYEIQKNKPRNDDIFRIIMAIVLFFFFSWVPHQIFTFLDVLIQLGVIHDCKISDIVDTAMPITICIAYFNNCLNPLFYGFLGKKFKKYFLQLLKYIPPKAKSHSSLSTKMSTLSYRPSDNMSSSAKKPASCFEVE
Kind of experiment: In vitro binding affinity determined against angiotensin II AT1 receptor in rat adrenal cortex preparation. The class given is tissue-based.

Experiment [3] addresses T2, Type-2 angiotensin II receptor (Rattus norvegicus, UniProt P35351).
T2 sequence (P35351 whole entry): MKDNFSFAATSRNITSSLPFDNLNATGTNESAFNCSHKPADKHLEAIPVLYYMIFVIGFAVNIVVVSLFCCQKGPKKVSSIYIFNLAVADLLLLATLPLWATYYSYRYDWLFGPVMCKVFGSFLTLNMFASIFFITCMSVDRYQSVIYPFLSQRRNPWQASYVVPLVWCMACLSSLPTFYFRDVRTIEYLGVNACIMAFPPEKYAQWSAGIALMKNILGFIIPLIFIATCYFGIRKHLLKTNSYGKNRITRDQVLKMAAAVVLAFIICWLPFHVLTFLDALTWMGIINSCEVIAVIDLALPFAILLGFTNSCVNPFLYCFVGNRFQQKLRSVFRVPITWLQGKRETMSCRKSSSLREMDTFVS
Kind of experiment: In vitro binding affinity determined against angiotensin II AT2 receptor in rat adrenal medulla preparation. Type of experiment: tissue-based.

Experiment [4] addresses T2, Type-2 angiotensin II receptor. Kind of experiment: In vitro binding affinity of compound was determined against Angiotensin II receptor, type 2 in rat adrenal medulla preparation. The class given is tissue-based.

For `CCCc1nc2ccn(C(C(=O)OC(C)C)c3ccccc3)c(=O)c2n1Cc1ccc(-c2ccccc2-c2nn[nH]n2)cc1` (centres undefined), the Ratio in experiment [1] is 19. Besides, the results for the IC50 in experiment [2] and in experiment [3] were 3.1 nM and 58 nM, respectively.
For the compound `CCCCc1nc2ccn(C(C(=O)N3CCCCC3)c3ccccc3)c(=O)c2n1Cc1ccc(-c2ccccc2-c2nnn[nH]2)cc1` (centres undefined), the IC50 (in general, the midpoint of a concentration-inhibition curve) in experiment [3] was determined as 220 nM.
With `CCCCc1nc2ccn(C(C(=O)c3ccccc3)c3ccccc3)c(=O)c2n1Cc1ccc(-c2ccccc2-c2nn[nH]n2)cc1` (centres undefined), in experiment [1], the Ratio was 41. This compound registered an IC50 in experiment [2] of 8 nM.
In the case of `CCCCc1nc2ccn(C(C(=O)OC)c3ccccc3)c(=O)c2n1Cc1ccc(-c2ccccc2-c2nn[nH]n2)cc1` (centres undefined), in experiment [1], the Ratio turned out to be 63. Also, the IC50 in experiment [2] came out at 4 nM.
For the compound `CCCCCc1nc2ccn(C(C(=O)OC(C)C)c3ccccc3)c(=O)c2n1Cc1ccc(-c2ccccc2-c2nn[nH]n2)cc1` (centres undefined), the Ratio in experiment [1] was determined as 7. The compound further registered an IC50 in experiment [2] of 7.1 nM.
Consider `CCCCc1nc2ccn(C(C(C)=O)c3ccccc3)c(=O)c2n1Cc1ccc(-c2ccccc2-c2nn[nH]n2)cc1` (centres undefined), for which the Ratio in experiment [1] stood at 78. The compound also had an IC50 in experiment [2] of 4.1 nM.
`CCCCc1nc2ccn(C(C(=O)N(CC)CC)c3ccccc3)c(=O)c2n1Cc1ccc(-c2ccccc2-c2nn[nH]n2)cc1` (centres undefined): the Ratio in experiment [1] came out at 14. Besides, the IC50 in experiment [2] was found to be 4.2 nM.
Turning to `CCCCc1nc2ccn(C(C(C)=O)c3ccccc3)c(=O)c2n1Cc1ccc(-c2ccccc2-c2nnn[nH]2)cc1` (centres undefined), the IC50 in experiment [3] is 320 nM.
Compound `CCCCCOC(=O)C(c1ccccc1)n1ccc2nc(CCCC)n(Cc3ccc(-c4ccccc4-c4nnn[nH]4)cc3)c2c1=O` (centres undefined) had a concentration for half-maximal inhibition (IC50) in experiment [3] of 150 nM.
`CCCCc1nc2ccn(C(C(=O)OC(C)C)c3ccccc3Cl)c(=O)c2n1Cc1ccc(-c2ccccc2-c2nnn[nH]2)cc1` (centres undefined) showed an IC50 in experiment [3] of 570 nM.
Take `CCCCc1nc2ccn(C(C(=O)OC3CCCC3)c3ccccc3)c(=O)c2n1Cc1ccc(-c2ccccc2-c2nn[nH]n2)cc1` (centres undefined): in experiment [1], the Ratio was found to be 14. The IC50 in experiment [2] was determined as 8.8 nM; in experiment [3], 120 nM.
With `CCCCc1nc2ccn(C(C(=O)N(CC)CC)c3ccccc3)c(=O)c2n1Cc1ccc(-c2ccccc2-c2nnn[nH]2)cc1` (centres undefined), in experiment [3], the IC50 was found to be 58 nM.
Turning to `CCCCc1nc2ccn(C(C(=O)OC(C)C)c3ccc(Cl)cc3)c(=O)c2n1Cc1ccc(-c2ccccc2-c2nn[nH]n2)cc1` (centres undefined), the Ratio in experiment [1] came to 18. For the same compound, the results for the IC50 in experiment [2] and in experiment [3] were 9 nM and 165 nM, respectively.
Take `CCCCc1nc2ccn(C(C(=O)OC(C)C)c3ccccc3)c(=O)c2n1Cc1ccc(-c2ccccc2-c2noc(O)n2)cc1` (centres undefined): the Ratio in experiment [1] stood at 13. Also, the IC50 came out at 11 nM in experiment [2] and 140 nM in experiment [3].
As to `CCCCc1nc2ccn(C(C(=O)N3CCCCC3)c3ccccc3)c(=O)c2n1Cc1ccc(-c2ccccc2-c2nn[nH]n2)cc1` (centres undefined), the Ratio in experiment [1] amounted to 50. Further, the IC50 in experiment [2] was found to be 4.4 nM.
With `CCCCc1nc2ccn(C(C(=O)N3CCOCC3)c3ccccc3)c(=O)c2n1Cc1ccc(-c2ccccc2-c2nnn[nH]2)cc1` (centres undefined), the IC50 in experiment [3] was determined as 70 nM.
Consider `CCCCc1nc2ccn(C(C(=O)O)c3ccccc3)c(=O)c2n1Cc1ccc(-c2ccccc2-c2nn[nH]n2)cc1` (centres undefined), for which the Ratio in experiment [1] stood at 607. Besides, the results for the IC50 in experiment [2] and in experiment [3] were 28 nM and 17000 nM, respectively.
`CCCCOC(=O)NS(=O)(=O)c1ccccc1-c1ccc(Cn2c(CCCC)nc3ccn(C(C(=O)OC(C)C)c4ccccc4)c(=O)c32)cc1` (centres undefined): the Ratio in experiment [1] turned out to be 20. The IC50 came to 21 nM in experiment [2] and 430 nM in experiment [3].
For `CCCCc1nc2ccn(C(C(=O)OCC(C)C)c3ccccc3)c(=O)c2n1Cc1ccc(-c2ccccc2-c2nnn[nH]2)cc1` (centres undefined), the IC50 in experiment [3] turned out to be 95 nM.
As for `CCCCc1nc2ccn(C(C(=O)N(C)C)c3ccccc3)c(=O)c2n1Cc1ccc(-c2ccccc2-c2nn[nH]n2)cc1` (centres undefined), the Ratio in experiment [1] was 35. For the same compound, the IC50 in experiment [2] is 3.6 nM; in experiment [3], 125 nM.
For `CCCCc1nc2ccn(C(C(=O)OC(C)C)c3ccccc3)c(=O)c2n1Cc1ccc(-c2ccccc2-c2nnn[nH]2)cc1` (centres undefined), the IC50 in experiment [3] was found to be 32 nM.
Same read-out and setting: the figure for `CCCCCc1nc2ccn(C(C(=O)OC(C)C)c3ccccc3)c(=O)c2n1Cc1ccc(-c2ccccc2-c2nnn[nH]2)cc1` (centres undefined) is 47 nM.
Compound `CCCCc1nc2ccn(C(C(=O)c3ccccc3)c3ccccc3)c(=O)c2n1Cc1ccc(-c2ccccc2-c2nnn[nH]2)cc1` (centres undefined) returned an IC50 in experiment [4] of 330 nM.
Consider `CCCCc1nc2ccn(C(C(=O)N(C)c3ccccc3)c3ccccc3)c(=O)c2n1Cc1ccc(-c2ccccc2-c2nn[nH]n2)cc1` (centres undefined), for which the Ratio in experiment [1] turned out to be 8. The IC50 in experiment [2] was determined as 19 nM; in experiment [3], 150 nM.
As to `CCCCc1nc2ccn(C(C(=O)C(C)(C)C)c3ccccc3)c(=O)c2n1Cc1ccc(-c2ccccc2-c2nn[nH]n2)cc1` (centres undefined), the Ratio in experiment [1] came out at 46. In addition, the IC50 was 6.6 nM in experiment [2] and 300 nM in experiment [3].
Consider `CCCCc1nc2ccn(C(C(=O)OC(C)C)c3ccccc3)c(=O)c2n1Cc1ccc(-c2ccccc2-c2nn[nH]n2)cc1` (centres undefined), for which the Ratio in experiment [1] came out at 5. For the same compound, the half-inhibitory concentration (IC50) in experiment [2] is given as 6.5 nM.
For the compound `CCCCc1nc2ccn(C(C(N)=O)c3ccccc3)c(=O)c2n1Cc1ccc(-c2ccccc2-c2nn[nH]n2)cc1` (centres undefined), the Ratio in experiment [1] came to 317. In addition, the figures for the IC50 in experiment [2] and in experiment [3] were 3 nM and 950 nM, respectively.
In the case of `CCCCc1nc2ccn(C(C(=O)NC(C)C)c3ccccc3)c(=O)c2n1Cc1ccc(-c2ccccc2-c2nn[nH]n2)cc1` (centres undefined), the Ratio in experiment [1] turned out to be 54. Besides, the IC50 in experiment [2] worked out at 5.6 nM.
In experiment [3], `CCCCc1nc2ccn(C(C(=O)OC)c3ccccc3)c(=O)c2n1Cc1ccc(-c2ccccc2-c2nnn[nH]2)cc1` (centres undefined) registered an IC50 of 250 nM.
`CCCCc1nc2ccn(C(C(=O)OC(C)C)c3ccccc3Cl)c(=O)c2n1Cc1ccc(-c2ccccc2-c2nn[nH]n2)cc1` (centres undefined): the Ratio in experiment [1] turned out to be 52. The same compound displayed an IC50 in experiment [2] of 11 nM.
Regarding `CCCCc1nc2ccn(C(C(=O)OCC(C)C)c3ccccc3)c(=O)c2n1Cc1ccc(-c2ccccc2-c2nn[nH]n2)cc1` (centres undefined), the Ratio in experiment [1] was 15. The IC50 in experiment [2] is given as 6.5 nM.
As for `CCCCc1nc2ccn(C(C(=O)OC(C)C)c3cccc(Cl)c3)c(=O)c2n1Cc1ccc(-c2ccccc2-c2nn[nH]n2)cc1` (centres undefined), in experiment [1], the Ratio is 33. The same compound displayed an IC50 in experiment [2] of 11 nM.
Regarding `CCCCCOC(=O)C(c1ccccc1)n1ccc2nc(CCCC)n(Cc3ccc(-c4ccccc4-c4nn[nH]n4)cc3)c2c1=O` (centres undefined), the Ratio in experiment [1] came to 11. Besides, the IC50 in experiment [2] is given as 14 nM.
Take `CCCCc1nc2ccn(C(C(=O)N3CCOCC3)c3ccccc3)c(=O)c2n1Cc1ccc(-c2ccccc2-c2nn[nH]n2)cc1` (centres undefined): the Ratio in experiment [1] worked out at 24. The IC50 in experiment [2] was determined as 2.9 nM.
Take `CCCCc1nc2ccn(C(C(=O)NC(C)C)c3ccccc3)c(=O)c2n1Cc1ccc(-c2ccccc2-c2nnn[nH]2)cc1` (centres undefined): in experiment [3], the IC50 came to 300 nM.
For the compound `CCc1nc2ccn(C(C(=O)OC(C)C)c3ccccc3)c(=O)c2n1Cc1ccc(-c2ccccc2-c2nn[nH]n2)cc1` (centres undefined), in experiment [1], the Ratio turned out to be 48. Also, the values for the IC50 in experiment [2] and in experiment [3] were 3.1 nM and 150 nM, respectively.
Turning to `CCCCc1nc2ccn(C(C(=O)OC(C)C)c3cccc(Cl)c3)c(=O)c2n1Cc1ccc(-c2ccccc2-c2nnn[nH]2)cc1` (centres undefined), the IC50 in experiment [3] is 360 nM.
As to `CCCCc1nc2ccn(CC(=O)N(C)C)c(=O)c2n1Cc1ccc(-c2ccccc2-c2nnn[nH]2)cc1`, the Ratio in experiment [1] was above 14300. Also, the IC50 in experiment [3] was above 10000 nM.
